ChEMBL document CHEMBL4715817, “Python Cathelicidin CATHPb1 Protects against Multidrug-Resistant Staphylococcal Infections by Antimicrobial-Immunomodulatory Duality” (J Med Chem, 2018)
≈ marks a conversion by molar mass, not a printed value. Calls of active or inactive are those of the source. The calls are words filed in the database; no cut-off is given here. Peptide text beside a SMILES is read from it.

Columns and labels:
Staphylococcus aureus [1] = test: In vivo antibacterial activity against methicillin sensitive Staphylococcus aureus ATCC 25923 infected in kunming mouse assessed as increase in survival rate at 10 mg/kg, ip administered 4 hrs after infection and measured up to 7 days after infection relative to control; format: functional; conditions: time day <=7
Staphylococcus aureus [2] = test: In vivo antibacterial activity against vancomycin resistant Staphylococcus aureus infected in kunming mouse assessed as reduction in bacterial load in peritoneal lavage at 10 mg/kg, ip administered 4 hrs after infection; format: functional, organism-based
[3] = molecular target: Mitogen-activated protein kinase 1 and 3 (ERK2 and ERK1) (Mus musculus) (UniProt P63085+Q63844); test: Inhibition of LPS-induced phosphorylation of Erk1/2 in mouse peritoneal macrophage at 20 ug/ml pretreated for 1 hr followed by LPS stimulation measured after 30 mins by Western blot analysis relative to control; format: tissue-based; conditions: dose 20.0 µg/ml, time 1.5 hrs
Pseudomonas aeruginosa = test: Antibiofilm activity against Pseudomonas aeruginosa assessed as biofilm eradication at BIC-5 by XTT and crystal violet staining assay relative to control; format: functional
Candida albicans = test: Antimicrobial activity against Candida albicans IS 08030809 incubated for 16 to 18 hrs by fluorescence microplate reader analysis; format: functional; conditions: time 16-18 hrs

Chain of Mitogen-activated protein kinase 1 and 3 (ERK2 and ERK1) (Mus musculus) (P63085 whole entry, looked up): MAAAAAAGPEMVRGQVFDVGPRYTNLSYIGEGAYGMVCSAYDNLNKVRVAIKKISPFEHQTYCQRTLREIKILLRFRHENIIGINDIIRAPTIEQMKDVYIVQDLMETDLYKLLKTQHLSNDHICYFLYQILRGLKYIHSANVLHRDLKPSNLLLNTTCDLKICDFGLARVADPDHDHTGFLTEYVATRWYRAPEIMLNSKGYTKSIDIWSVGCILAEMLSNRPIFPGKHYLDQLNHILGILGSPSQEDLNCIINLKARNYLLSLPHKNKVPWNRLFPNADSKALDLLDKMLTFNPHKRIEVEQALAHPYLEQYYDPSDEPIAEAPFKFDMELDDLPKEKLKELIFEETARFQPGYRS
Chain of Mitogen-activated protein kinase 1 and 3 (ERK2 and ERK1) (Mus musculus) (Q63844 whole entry, looked up): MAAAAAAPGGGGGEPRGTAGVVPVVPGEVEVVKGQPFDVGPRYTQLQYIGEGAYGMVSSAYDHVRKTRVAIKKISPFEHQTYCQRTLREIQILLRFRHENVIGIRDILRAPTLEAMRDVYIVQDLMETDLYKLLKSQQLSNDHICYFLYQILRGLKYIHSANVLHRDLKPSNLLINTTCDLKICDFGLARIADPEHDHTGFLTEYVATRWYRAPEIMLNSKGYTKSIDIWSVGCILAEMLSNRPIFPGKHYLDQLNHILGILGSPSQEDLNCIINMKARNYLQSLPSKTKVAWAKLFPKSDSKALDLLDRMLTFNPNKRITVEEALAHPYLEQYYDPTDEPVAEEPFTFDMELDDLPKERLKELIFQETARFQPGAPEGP

CC[C@H](C)[C@H](NC(=O)[C@@H]1CCCN1C(=O)[C@@H](NC(=O)[C@@H](NC(=O)CNC(=O)CNC(=O)[C@@H](NC(=O)[C@H](Cc1ccccc1)NC(=O)[C@@H](NC(=O)[C@H](CCCCN)NC(=O)[C@@H](NC(=O)[C@H](CCCCN)NC(=O)[C@H](CCCCN)NC(=O)[C@H](Cc1ccccc1)NC(=O)[C@@H](NC(=O)[C@H](CCCCN)NC(=O)[C@H](CCCNC(=N)N)NC(=O)[C@H](Cc1ccccc1)NC(=O)CNC(=O)[C@H](CCCCN)NC(=O)[C@H](CCCCN)NC(=O)[C@@H](NC(=O)[C@H](CCCCN)NC(=O)[C@H](CCCNC(=N)N)NC(=O)[C@H](Cc1ccccc1)NC(=O)[C@H](Cc1ccccc1)NC(=O)[C@H](CCCCN)NC(=O)[C@H](CCCCN)NC(=O)[C@H](Cc1ccccc1)NC(=O)[C@H](CCCNC(=N)N)NC(=O)[C@@H](N)CCCCN)[C@@H](C)CC)[C@@H](C)CC)[C@@H](C)O)[C@@H](C)CC)[C@@H](C)CC)[C@@H](C)O)[C@@H](C)CC)C(=O)O (H-KRFKKFFRKIKKGFRKIFKKTKIFIGGTIPI-OH)
Activity (Staphylococcus aureus [1]): 83% | Activity (Staphylococcus aureus [2]): Active | inhibition [3]: 90% | Activity (Pseudomonas aeruginosa): 62.23% | MIC (Candida albicans): 1.17 µg/mL (≈ 0.308 µM)
